The source of these data is ChEMBL document CHEMBL1139907, “Further studies on hepatitis C virus NS5B RNA-dependent RNA polymerase inhibitors toward improved replicon cell activities: benzimidazole and structurally related compounds bearing the 2-morpholinophenyl moiety” (Bioorg Med Chem Lett, 2007).

A short description of data set [1]: Inhibition of HCV NS5B polymerase. The arrangement: species or system Hepacivirus hominis.
In a further data set the test system is Hepacivirus hominis. As to the kind of experiment: Ratio of EC50 of HCV to IC50 for HCV NS5B polymerase.
Data set [2] is described as follows: Cytotoxicity against Huh-5-2 cells. Type of data set: cell-based. The conditions noted are these: human.
Another data set deals with Hepatitis C virus. As to the kind of experiment: Antiviral activity against HCV in Huh-5-2 cells by replicon assay. The class given is functional, organism-based, Hepacivirus hominis. A general note: In antiviral work, replicon cells carry a viral genome segment that copies itself.

SMILES strings stand for the structures.

With `CC(=O)N(c1ccc(N2CCOCC2)c(COc2ccc(-c3nc4cc(C(=O)O)ccc4n3C3CCCCC3)c(F)c2)c1)C(C)C`, the IC50 (usually the concentration that gives 50% inhibition) in data set [1] came to 42 nM. In addition, in the data set on Hepacivirus hominis, the Ratio was 6.4. For the same compound, in data set [2], the CC50 – broadly, the concentration that lowers cell viability or growth by half – is over 20000 nM. Also, the EC50 – broadly, the midpoint of the concentration-response curve – with Hepatitis C virus was determined as 270 nM.

In turn, `COc1ccc(N2CCCC2=O)cc1COc1ccc(-c2nc3cc(C(=O)O)ccc3n2C2CCCCC2)c(F)c1` displayed an IC50 in data set [1] of 410 nM. Also, the Ratio in the data set on Hepacivirus hominis is 3.4. The compound also displayed a CC50 in data set [2] of over 20000 nM. In the data set with Hepatitis C virus, this compound yielded an EC50 of 1400 nM.

In data set [1], `O=C(O)c1ccc2c(c1)nc(-c1ccc(OCc3cc(N4CCCCC4=O)ccc3N3CCOCC3)cc1F)n2C1CCCCC1` gave an IC50 of 90 nM. Besides, the Ratio in the data set on Hepacivirus hominis turned out to be 6.4. This compound showed a CC50 in data set [2] of over 20000 nM. In the data set with Hepatitis C virus, this compound yielded an EC50 of 580 nM.

Regarding `O=C(O)c1ccc2c(c1)nc(-c1ccc(OCc3cc(N4CCCC4=O)ccc3N3CCCCC3)cc1F)n2C1CCCCC1`, the IC50 in data set [1] stood at 150 nM. Also, in the data set on Hepacivirus hominis, the Ratio was determined as 5.3. The cytotoxic concentration (CC50) in data set [2] was over 20000 nM. In the data set with Hepatitis C virus, this compound gave an EC50 of 800 nM.

Compound `O=C(O)c1ccc2c(c1)nc(-c1ccc(OCc3cc(Cl)ccc3N3CCOCC3)cc1F)n2C1CCCCC1` gave an IC50 in data set [1] of 100 nM. The Ratio with Hepacivirus hominis was 12. This compound also came in with a CC50 in data set [2] of over 20000 nM. Further, it took 1200 nM to reach a half-maximal effect in the data set on Hepatitis C virus (EC50).

In data set [1], `CN(C)C(=O)c1ccc(N2CCOCC2)c(COc2ccc(-c3nc4cc(C(=O)O)ccc4n3C3CCCCC3)c(F)c2)c1` gave a 50% inhibitory concentration (IC50) of 68 nM. Also, the Ratio with Hepacivirus hominis was 6.5. Moreover, in data set [2], the CC50 is over 20000 nM. In the data set on Hepatitis C virus, the EC50 amounted to 440 nM.

Compound `CN1CCN(c2ccc(N3CCCC3=O)cc2COc2ccc(-c3nc4cc(C(=O)O)ccc4n3C3CCCCC3)c(F)c2)CC1` showed an IC50 in data set [1] of 130 nM. The Ratio with Hepacivirus hominis is 8.5. The compound also returned a CC50 in data set [2] of over 20000 nM. This compound also registered a concentration giving a half-maximal response (EC50) in the data set with Hepatitis C virus of 1100 nM.

Take `O=C(O)c1ccc2c(C3CCCCC3)c3n(c2c1)CCOc1cc(OCc2cc(N4CCCC4=O)ccc2N2CCOCC2)ccc1-3`: in data set [1], the IC50 was determined as 7.2 nM. Besides, in the data set with Hepacivirus hominis, the Ratio is 1.1. Further, in data set [2], the half-maximal cytotoxic concentration (CC50) is over 20000 nM. In the data set with Hepatitis C virus, this compound displayed an EC50 of 7.6 nM.

The compound `Cn1c(-c2ccc(OCc3cc(N4CCCC4=O)ccc3N3CCOCC3)cc2)c(C2CCCCC2)c2ccc(C(=O)O)cc21` returned an IC50 in data set [1] of 7.2 nM. Also, the Ratio in the data set on Hepacivirus hominis was 7.2. In data set [2], the cytotoxic concentration (CC50) is over 20000 nM. In the data set with Hepatitis C virus, it took 52 nM to reach a half-maximal effect (EC50).

`COCCN(C)c1ccc(N2CCCC2=O)cc1COc1ccc(-c2nc3cc(C(=O)O)ccc3n2C2CCCCC2)c(F)c1` returned an IC50 in data set [1] of 260 nM. Also, the Ratio with Hepacivirus hominis is 5. Moreover, in data set [2], the CC50 was over 20000 nM. In the data set with Hepatitis C virus, this compound displayed an EC50 of 1300 nM.

Consider `O=C(O)c1ccc2c(c1)nc(-c1ccc(OCc3cc(N4CCCC4=O)ccc3N3CCC(C(=O)O)CC3)cc1F)n2C1CCCCC1`, for which 180 nM corresponded to half-maximal inhibition in data set [1] (IC50). Moreover, in the data set on Hepacivirus hominis, the Ratio is 19. In addition, the CC50 in data set [2] is over 20000 nM. In the data set on Hepatitis C virus, this compound yielded an EC50 of 3500 nM.

In the case of `O=C(O)c1ccc2c(c1)cc(-c1ccc(OCc3cc(N4CCCC4=O)ccc3N3CCOCC3)cc1)n2C1CCCCC1`, half-maximal inhibition in data set [1] (IC50) was put at 30 nM. The Ratio with Hepacivirus hominis came out at 7. In data set [2], this compound displayed a CC50 of over 20000 nM. A half-maximal response in the data set on Hepatitis C virus (EC50) required 210 nM.

For `O=C(O)c1ccc2c(c1)nc(-c1ccc(OCc3cc(N4CCCC4=O)ccc3-c3ccc(Cl)cc3)cc1F)n2C1CCCCC1`, in the data set with Hepacivirus hominis, the Ratio worked out at 19. Also, the CC50 in data set [2] is over 20000 nM.

In the case of `O=C(O)c1ccc2c(c1)nc(-c1ccc(OCc3cc(N4CCCS4(=O)=O)ccc3N3CCOCC3)cc1F)n2C1CCCCC1`, the IC50 in data set [1] was 71 nM. For the same compound, the Ratio with Hepacivirus hominis came to 7.7. Besides, the CC50 in data set [2] was over 20000 nM. Besides, a half-maximal response in the data set with Hepatitis C virus (EC50) required 550 nM.

In data set [1], `CC(C)NC(=O)c1ccc(N2CCOCC2)c(COc2ccc(-c3nc4cc(C(=O)O)ccc4n3C3CCCCC3)c(F)c2)c1` came in with an IC50 of 48 nM. Further, the Ratio in the data set on Hepacivirus hominis turned out to be 7.9. Besides, in data set [2], the CC50 was over 20000 nM. Also, in the data set on Hepatitis C virus, a half-maximal effect (EC50) was put at 380 nM.

For `O=C(O)c1ccc2c(c1)nc(-c1ccc(OCc3cc(N4CCCC4=O)ccc3N3CCC(O)CC3)cc1F)n2C1CCCCC1`, the IC50 in data set [1] is 150 nM. For the same compound, in the data set on Hepacivirus hominis, the Ratio is 9.3. For the same compound, the CC50 in data set [2] was over 20000 nM. The compound also displayed an EC50 with Hepatitis C virus of 1400 nM.

The compound `COCC(=O)N(C)c1ccc(N2CCOCC2)c(COc2ccc(-c3nc4cc(C(=O)O)ccc4n3C3CCCCC3)c(F)c2)c1` came in with an IC50 in data set [1] of 99 nM. For the same compound, in the data set on Hepacivirus hominis, the Ratio worked out at 12. Besides, the CC50 in data set [2] is over 20000 nM. Moreover, in the data set with Hepatitis C virus, the EC50 is 1200 nM.

`O=C(O)c1ccc2c(c1)nc(-c1ccc(OCc3cc(N4CCCC4=O)ccc3N3CCOCC3=O)cc1F)n2C1CCCCC1`: the half-inhibitory concentration (IC50) in data set [1] came out at 1000 nM. In the data set on Hepacivirus hominis, the Ratio was over 30. In data set [2], the half-maximal cytotoxic concentration (CC50) was over 20000 nM. The compound also yielded an EC50 in the data set on Hepatitis C virus of over 30000 nM.

For `CC(=O)Nc1ccc(N2CCOCC2)c(COc2ccc(-c3nc4cc(C(=O)O)ccc4n3C3CCCCC3)c(F)c2)c1`, the IC50 in data set [1] is 70 nM. Further, the Ratio in the data set on Hepacivirus hominis came to 13. The compound further registered a CC50 in data set [2] of over 20000 nM. The compound further gave an EC50 in the data set on Hepatitis C virus of 910 nM.

In data set [1], `O=C(O)c1ccc2c(c1)nc(-c1ccc(OCc3cc(N4CCCC4=O)ccc3Oc3ccc(Cl)cc3)cc1F)n2C1CCCCC1` registered an IC50 of 230 nM. For the same compound, the Ratio in the data set on Hepacivirus hominis was 13. The CC50 in data set [2] is over 20000 nM. This compound also registered an EC50 in the data set with Hepatitis C virus of 3100 nM.

`CC(=O)N(C)c1ccc(N2CCOCC2)c(COc2ccc(-c3nc4cc(C(=O)O)ccc4n3C3CCCCC3)c(F)c2)c1`: the midpoint of inhibition in data set [1], the IC50, lay at 51 nM. The Ratio with Hepacivirus hominis is 7.3. This compound came in with a half-maximal cytotoxic concentration (CC50) in data set [2] of over 20000 nM. The compound further returned an EC50 with Hepatitis C virus of 370 nM.

In data set [1], `CC(=O)N1CCN(c2ccc(N3CCCC3=O)cc2COc2ccc(-c3nc4cc(C(=O)O)ccc4n3C3CCCCC3)c(F)c2)CC1` returned an IC50 of 110 nM. In addition, the Ratio in the data set with Hepacivirus hominis was found to be 8.6. The same compound had a CC50 in data set [2] of over 20000 nM. The compound further came in with a concentration giving a half-maximal response (EC50) in the data set on Hepatitis C virus of 950 nM.

Turning to `O=C(O)c1ccc2c(c1)nc(-c1ccc(OCc3cc(N4CCCC4=O)ccc3N3CCOCC3)cc1F)n2C1CCCCC1`, the IC50 in data set [1] was determined as 66 nM. Also, the Ratio in the data set with Hepacivirus hominis was determined as 4.7. The compound further returned a CC50 in data set [2] of over 20000 nM. In addition, the EC50 with Hepatitis C virus worked out at 310 nM.

`O=C(O)c1ccc2c(C3CCCCC3)c3n(c2c1)CCOc1cc(OCc2cc(N4CCCC4=O)ccc2-c2ccc(Cl)cc2)ccc1-3` came in with an IC50 in data set [1] of 19 nM. The Ratio with Hepacivirus hominis came out at 3.1. In data set [2], this compound yielded a CC50 of over 20000 nM. For the same compound, the EC50 in the data set on Hepatitis C virus was 60 nM.

`O=C(O)c1ccc2c(c1)nc(-c1ccc(OCc3ccccc3N3CCOCC3)cc1F)n2C1CCCCC1` returned an IC50 in data set [1] of 130 nM. Moreover, the Ratio with Hepacivirus hominis came to 7.7. This compound came in with a CC50 in data set [2] of over 20000 nM. In the data set with Hepatitis C virus, this compound displayed an EC50 of 1000 nM.
